KD and Tm increase data for one compound are collected here from publication PMC10855526 (2024).

The structures appear in SMILES notation.

As a reminder, the KD is the concentration at which binding is half-saturated.

Assay [1] has as its system A20:T20 duplex DNA (dA20:dT20) (DNA, duplex) AAAAAAAAAAAAAAAAAAAA/TTTTTTTTTTTTTTTTTTTT
Put plainly: isothermal titration calorimetry. As to conditions: 20 mM NaCl (30 mM Na+ in Table 1); 10 mM Na phosphate pH 7.5; 25 °C; 10 µM DNA; N constrained to 4; binding site size 5 bp. (Isothermal titration calorimetry measures the heat released or taken up as one component is titrated into another.)

Assay [2] shares this test system. Kind of assay: UV thermal melting at 260 nm. As to conditions: 20 mM NaCl; 10 mM HEPES pH 7.5; 200 µM chloroquine; 4 µM duplex; fitted saturating ΔTm 16 ± 2 °C.
The test system is the same in assay [3]. Put plainly: UV thermal melting, ΔTm binding isotherm fit. As to conditions: 20 mM NaCl; 10 mM HEPES pH 7.5; 4 µM duplex; chloroquine diphosphate; from ΔTm vs concentration.

Regarding `CCN(CC)CCCC(C)Nc1ccnc2cc(Cl)ccc12` (stereo not drawn), the results for the KD in assay [1] and in assay [3] were 360 ± 20 µM and 90 ± 10 µM, respectively. Moreover, the Tm increase in assay [2] is ~ 10 °C.
